± gives the expanded uncertainty stated by the source.
Key:
[1] = molar heat capacity at constant pressure; details: 101.33 kPa, Crystal, relaxation calorimetry
[2] = 101.33 kPa, Crystal, relaxation calorimetry

O=c1cc(Cl)[nH]c(=O)[nH]1 [6-chlorouracil]
Details	molar entropy, [2] [J/K/mol]	molar heat capacity at constant pressure, [1] [J/K/mol]
0.5 K	0.00109 ± 0.00016	0.00126 ± 0.00027
1 K	0.00269 ± 0.0003	0.00405 ± 0.00039
1.93 K	–	0.0182 ± 0.0015
2 K	0.00944 ± 0.001	0.0203 ± 0.0015
2.15 K	–	0.0242 ± 0.0019
2.38 K	–	0.0322 ± 0.0024
2.65 K	–	0.043 ± 0.0032
2.95 K	–	0.0584 ± 0.0042
3 K	0.0242 ± 0.0026	0.0602 ± 0.0043
3.27 K	–	0.0782 ± 0.0056
3.63 K	–	0.103 ± 0.007
4 K	0.0508 ± 0.0054	0.135 ± 0.01
4.04 K	–	0.139 ± 0.01
4.48 K	–	0.186 ± 0.013
4.98 K	–	0.247 ± 0.017
5 K	0.0926 ± 0.0097	0.252 ± 0.018
5.52 K	–	0.332 ± 0.023
6 K	0.152 ± 0.016	0.415 ± 0.029
6.12 K	–	0.436 ± 0.031
6.79 K	–	0.58 ± 0.04
7 K	0.232 ± 0.024	0.631 ± 0.044
7.53 K	–	0.771 ± 0.054
8 K	0.333 ± 0.035	0.908 ± 0.064
8.35 K	–	1.02 ± 0.07
9 K	0.459 ± 0.048	1.25 ± 0.09
9.26 K	–	1.35 ± 0.09
10 K	0.612 ± 0.064	1.66 ± 0.12
10.25 K	–	1.77 ± 0.12
11.34 K	–	2.31 ± 0.16
12.58 K	–	3.02 ± 0.21
13.97 K	–	3.91 ± 0.27
15 K	1.8 ± 0.19	4.63 ± 0.32
15.49 K	–	4.99 ± 0.35
17.19 K	–	6.32 ± 0.44
19.09 K	–	7.91 ± 0.55
20 K	3.67 ± 0.22	8.68 ± 0.35
21.19 K	–	9.7 ± 0.39
23.51 K	–	11.78 ± 0.48
25 K	6.08 ± 0.37	13.17 ± 0.54
26.09 K	–	14.1 ± 0.57
28.91 K	–	16.74 ± 0.68
30 K	8.88 ± 0.54	17.67 ± 0.72
32.12 K	–	19.59 ± 0.8
35 K	11.94 ± 0.73	22.04 ± 0.9
35.65 K	–	22.58 ± 0.92
39.54 K	–	25.93 ± 1.1
40 K	15.15 ± 0.92	26.22 ± 1.1
43.88 K	–	29.29 ± 1.2
45 K	18.47 ± 1.1	30.18 ± 1.2
48.68 K	–	32.81 ± 1.3
50 K	21.85 ± 1.3	33.87 ± 1.4
54.02 K	–	36.6 ± 1.5
59.94 K	–	40.61 ± 1.6
60 K	28.63 ± 1.7	40.68 ± 1.6
66.52 K	–	44.81 ± 1.8
70 K	35.37 ± 2.2	46.77 ± 1.9
73.83 K	–	48.95 ± 2
80 K	41.97 ± 2.6	52.2 ± 2.1
81.96 K	–	53.22 ± 2.2
90 K	48.41 ± 3	57.15 ± 2.3
90.91 K	–	57.53 ± 2.3
100 K	54.67 ± 3.3	61.75 ± 2.5
100.89 K	–	61.78 ± 2.5
110 K	60.76 ± 3.7	66.1 ± 2.7
111.04 K	–	66.68 ± 2.7
120 K	66.7 ± 4.1	70.26 ± 2.9
121.13 K	–	70.82 ± 2.9
130 K	72.48 ± 4.4	74.29 ± 3
131.15 K	–	74.92 ± 3
140 K	78.13 ± 4.8	78.22 ± 3.2
141.29 K	–	78.76 ± 3.2
150 K	83.66 ± 5.1	82.08 ± 3.3
151.38 K	–	82.6 ± 3.4
160 K	89.08 ± 5.4	85.89 ± 3.5
161.47 K	–	86.43 ± 3.5
170 K	94.4 ± 5.8	89.66 ± 3.6
171.56 K	–	90.19 ± 3.7
180 K	99.63 ± 6.1	93.41 ± 3.8
181.61 K	–	94.08 ± 3.8
190 K	104.78 ± 6.4	97.14 ± 4
191.69 K	–	97.83 ± 4
200 K	109.85 ± 6.7	100.85 ± 4.1
201.81 K	–	101.23 ± 4.1
210 K	114.86 ± 7	104.56 ± 4.2
211.89 K	–	105.16 ± 4.3
220 K	119.81 ± 7.3	108.26 ± 4.4
222 K	–	108.99 ± 4.4
230 K	124.71 ± 7.6	111.96 ± 4.5
232.08 K	–	112.88 ± 4.6
240 K	129.55 ± 7.9	115.64 ± 4.7
242.1 K	–	116.48 ± 4.7
250 K	134.35 ± 8.2	119.33 ± 4.8
252.19 K	–	120.07 ± 4.9
260 K	139.1 ± 8.5	123 ± 5
262.33 K	–	123.73 ± 5
270 K	143.81 ± 8.8	126.67 ± 5.2
272.41 K	–	127.71 ± 5.2
273.15 K	145.28 ± 8.8	127.82 ± 5.2
280 K	148.48 ± 9.1	130.33 ± 5.3
282.41 K	–	131.41 ± 5.3
290 K	153.12 ± 9.3	133.98 ± 5.4
292.56 K	–	134.98 ± 5.5
298.15 K	156.87 ± 9.6	136.94 ± 5.6
300 K	157.72 ± 9.6	137.62 ± 5.6
302.57 K	–	138.3 ± 5.6

Oc1ncc(Cl)c(O)n1 [5-chloro-2,4-pyrimidinedione]
Details	molar entropy, [2] [J/K/mol]	molar heat capacity at constant pressure, [1] [J/K/mol]
0.5 K	0.000378 ± 7e-05	0.000485 ± 0.00015
1 K	0.00108 ± 0.00013	0.00194 ± 0.00021
2 K	0.00473 ± 0.00051	0.0116 ± 0.0009
2.04 K	–	0.0119 ± 0.001
2.26 K	–	0.0165 ± 0.0013
2.51 K	–	0.0224 ± 0.0017
2.79 K	–	0.0297 ± 0.0022
3 K	0.0135 ± 0.0014	0.0367 ± 0.0027
3.1 K	–	0.0407 ± 0.003
3.44 K	–	0.0549 ± 0.0039
3.82 K	–	0.0739 ± 0.0053
4 K	0.0301 ± 0.0032	0.085 ± 0.0061
4.24 K	–	0.101 ± 0.007
4.71 K	–	0.138 ± 0.01
5 K	0.0569 ± 0.006	0.164 ± 0.012
5.24 K	–	0.188 ± 0.013
5.81 K	–	0.257 ± 0.018
6 K	0.0966 ± 0.01	0.282 ± 0.02
6.44 K	–	0.35 ± 0.025
7 K	0.152 ± 0.016	0.446 ± 0.031
7.17 K	–	0.479 ± 0.034
7.91 K	–	0.649 ± 0.045
8 K	0.225 ± 0.024	0.665 ± 0.047
8.78 K	–	0.878 ± 0.061
9 K	0.319 ± 0.033	0.945 ± 0.066
9.74 K	–	1.19 ± 0.08
10 K	0.435 ± 0.046	1.28 ± 0.09
10.81 K	–	1.59 ± 0.11
11.99 K	–	2.14 ± 0.15
13.31 K	–	2.79 ± 0.19
14.74 K	–	3.64 ± 0.25
15 K	1.39 ± 0.15	3.81 ± 0.27
16.35 K	–	4.68 ± 0.33
18.13 K	–	6.06 ± 0.42
20 K	2.96 ± 0.18	7.44 ± 0.3
20.12 K	–	7.49 ± 0.3
22.32 K	–	9.36 ± 0.38
24.77 K	–	11.49 ± 0.47
25 K	5.07 ± 0.31	11.69 ± 0.48
27.49 K	–	13.93 ± 0.57
30 K	7.59 ± 0.46	16.14 ± 0.66
30.5 K	–	16.6 ± 0.67
33.86 K	–	19.52 ± 0.79
35 K	10.42 ± 0.64	20.57 ± 0.84
37.57 K	–	22.81 ± 0.93
40 K	13.44 ± 0.82	24.87 ± 1
41.69 K	–	26.3 ± 1.1
45 K	16.61 ± 1	28.97 ± 1.2
46.26 K	–	29.88 ± 1.2
50 K	19.87 ± 1.2	32.81 ± 1.3
51.34 K	–	34.08 ± 1.4
56.96 K	–	37.64 ± 1.5
60 K	26.48 ± 1.6	39.81 ± 1.6
63.23 K	–	41.77 ± 1.7
70 K	33.09 ± 2	45.98 ± 1.9
70.19 K	–	45.99 ± 1.9
77.89 K	–	50.5 ± 2.1
80 K	39.6 ± 2.4	51.52 ± 2.1
86.44 K	–	54.98 ± 2.2
90 K	45.96 ± 2.8	56.6 ± 2.3
95.96 K	–	59.39 ± 2.4
100 K	52.17 ± 3.2	61.33 ± 2.5
106.02 K	–	64.02 ± 2.6
110 K	58.23 ± 3.5	65.83 ± 2.7
116.12 K	–	68.52 ± 2.8
120 K	64.15 ± 3.9	70.16 ± 2.9
126.18 K	–	72.83 ± 3
130 K	69.93 ± 4.3	74.35 ± 3
136.3 K	–	76.98 ± 3.1
140 K	75.59 ± 4.6	78.45 ± 3.2
146.41 K	–	80.91 ± 3.3
150 K	81.14 ± 4.9	82.47 ± 3.4
156.52 K	–	84.91 ± 3.5
160 K	86.59 ± 5.3	86.42 ± 3.5
166.6 K	–	89.11 ± 3.6
170 K	91.94 ± 5.6	90.33 ± 3.7
176.69 K	–	92.91 ± 3.8
180 K	97.22 ± 5.9	94.19 ± 3.8
186.77 K	–	96.98 ± 3.9
190 K	102.41 ± 6.2	98.02 ± 4
196.85 K	–	100.43 ± 4.1
200 K	107.53 ± 6.5	101.81 ± 4.1
206.94 K	–	104.46 ± 4.2
210 K	112.59 ± 6.9	105.58 ± 4.3
217.03 K	–	107.97 ± 4.4
220 K	117.59 ± 7.2	109.32 ± 4.4
227.26 K	–	112.17 ± 4.6
230 K	122.53 ± 7.5	113.04 ± 4.6
234.67 K	–	114.85 ± 4.7
240 K	127.42 ± 7.8	116.74 ± 4.7
244.74 K	–	118.78 ± 4.8
250 K	132.26 ± 8.1	120.42 ± 4.9
254.84 K	–	122.35 ± 5
260 K	137.06 ± 8.3	124.08 ± 5
264.91 K	–	125.73 ± 5.1
270 K	141.81 ± 8.6	127.73 ± 5.2
273.15 K	143.3 ± 8.7	128.88 ± 5.2
275 K	–	129.5 ± 5.3
280 K	146.52 ± 8.9	131.37 ± 5.3
285.08 K	–	132.72 ± 5.4
290 K	151.19 ± 9.2	135 ± 5.5
295.37 K	–	136.73 ± 5.5
298.15 K	154.97 ± 9.4	137.95 ± 5.6
300 K	155.83 ± 9.5	138.62 ± 5.6
302.71 K	–	140.1 ± 5.7
